For the experiment, the system named is sleep stages. The experiment in a line: Sleep-stage analysis in wirelessly implanted rats. The note with it: Lorazepam 1 mg/kg IP.

Entries after “also recorded” stand apart in the source; their conditions may differ.

In the case of `CC(C)(O)c1cnn2c(-c3ccc(F)c(-c4c(F)cccc4C#N)c3)cnc2n1` [Compound 1, 2′,6-difluoro-5′-(3-(2-hydroxypropan-2-yl)imidazo[1,2-b][1,2,4]triazin-7-yl)-[1,1′-biphenyl]-2-carbonitrile], the NREM onset entry (Compound 1 1 mg/kg PO) is on record as “did not change NREM onset; also recorded: does not decrease time to Non-REM onset”. Further, where the note is “Compound 1 PO”, the “Active Wake” value is recorded as “decreased Active Wake”, the NREM result is “increased NREM” and the “Quiet Wake” value is listed as “only Compound 1 decreased Quiet Wake”.

(Values after US20260345621A1, “GABAA RECEPTOR MODULATORS AND USES THEREOF” (Engrail Therapeutics, Inc., priority 2022, published 2026).)
